From patent publication US20240082222A1, “4-CHLORO-N-[2-[(4-CHLOROPHENYL)METHYL]-3-OXO-1,2,4-THIADIAZOL-5-YL]BENZAMIDE FOR USE IN MEDICINE” (Betagenon AB, priority 2021, published 2024)
Where “and” joins values, the source holds several entries; their conditions need not be identical. Equal entries are not always repeated. Structures can show the parent of a compound that is named as a salt. Where two headings read alike, the source gives them in different places.

Test: Pharmacokinetic study in humans, sodium salt in enteric capsules, single and multiple dose (Example 2)
Format: in vivo, human
Conditions: for AUClast_D / Cmax D / AUC_TAU_D: dose-normalised; for AUC(0-t) / Cmax / Tmax / AUC / concentration at 24 h: human, plasma, oral; for Cmax: read-out: Cmax; for Tmax: read-out: Tmax; for concentration at 24 h: read-out: Clast
Procedure: An open, randomised, parallel-group study in healthy volunteers (hereafter referred to as subjects) was conducted to evaluate the exposure of 4-chloro-N-[2-[(4-chlorophenyl)methyl]-3-oxo-1,2,4-thiadiazol-5-yl]benzamide after single and multiple dose administration of 3 dose levels of the sodium salt of 4-chloro-N-[2-[(4-chlorophenyl)methyl]-3-oxo-1,2,4-thiadiazol-5-yl]benzamide and to evaluate combination with dapagliflozin at steady state.
For the study, Vcaps enteric capsules, size 0, were individually filled with 200 mg of milled test material together with 2 mg of sodium docusate, 125 mg of mannitol and 6.5 mg of sodium lauryl sulfate. […]
A screening visit (Visit 1) was performed within 28 days before randomisation and the start of IMP administration. The subjects were confined to the research clinic from the evening before Day 1 (Visit 2; Day—1). […]
Pre-dose safety assessments as well as pre- and post-dose PK assessments were performed. The subjects left the clinic after the last PK-sample on Day 1 and returned for a 24 h PK sample and dosing on Day 2 (Visit 3).
Subjects self-administered the test material at home from Day 3 to Day 15. A telephone visit to check compliance, AE status and use of concomitant medications will be performed on Day 8 (Visit 4).
The subjects returned to the clinic on Days 16 and 17 (Visits 5 and 6), for PK sampling and AE assessment. Visit 6 continued in the evening of Day 17, when the subjects were confined to the clinic until Day 18. On Day 18, pre- and post-dose PK and safety assessments were performed. The subjects left the clinic after the last PK sample on Day 18 and returned for a 24 h PK sample and dosing on Day 19 (Visit 7).
On Day 19 (Visit 7) subjects began co-administration of the test material and dapagliflozin (Forxiga), 10 mg per day for 7 days (Day 19 to Day 25). The subjects returned to the clinic on Day 25 (Visit 8) for final dosing, PK and safety assessments. A final end-of-study visit (Visit 9) for follow-up of safety assessments was conducted 28 days (+14 days) after Visit 8 or after early withdrawal.
Venous blood samples (approximately 5 mL) for the determination of plasma concentrations of 4-chloro-N-[2-[(4-chlorophenyl)methyl]-3-oxo-1,2,4-thiadiazol-5-yl]benzamide after administration of the test material were collected through an indwelling venous catheter on Days 1, 2, 16 to 19 and 25.
The blood samples were collected in pre-labelled Li-Heparin tubes. All the collected blood samples were be centrifuged at 1500 G for 10 minutes to separate plasma within 60 minutes from the sample is drawn. The separated plasma from each blood sample was be divided into 2 aliquots in pre-labelled polypropylene cryotubes (A and B samples, approximately 750 μL in each tube) and frozen at <−70° C. On Day 25, the plasma was divided in to 3 aliquots of at least 500 μL (A and B samples for the test material, and 1 sample for potential future analysis of dapagliflozin).
Samples for determination of plasma concentrations of 4-chloro-N[2-[(4-chlorophenyl)methyl]-3-oxo-1,2,4-thiadiazol-5-yl]benzamide were analysed by Lablytica Life Science AB, Uppsala, Sweden by means of a validated LS-MS/MS method.
The data of plasma concentration to respective time points for the analyte (4-chloro-N-[2-[(4-chlorophenyl)methyl]-3-oxo-1,2,4-thiadiazol-5-yl]benzamide) were used for the pharmacokinetic analysis. Pharmacokinetic analysis was performed using non-compartmental analysis (NCA) module of Phoenix WinNonlin 8.1 software to determine the following pharmacokinetic parameters.
After single dose administration of test material: • AUC0-24, Cmax, Tmax and dose proportionality (based on AUC0-24 and Cmax) (secondary endpoints). […]

[1] = 2000 mg Dose Group, capsule once daily, Day 18, Mean
[2] = 2000 mg Dose Group, capsule once daily, Day 18, Median
[3] = capsule once daily, Day 18, individual subjects, listed as test material
[4] = 200 mg, mean, dose group 200, capsule, Day 1
[5] = 200 mg, mean, dose group 200, capsule, Day 18
[6] = 400 mg, 400 mg Dose Group, capsules once daily, Day 18, Geometric Mean
[7] = 400 mg, 400 mg Dose Group, capsules once daily, Day 18, Mean
[8] = 400 mg, 400 mg Dose Group, capsules once daily, Day 18, Median
[9] = 400 mg, 400 mg Dose Group, capsules once daily, Day 18, individual subjects
[10] = 400 mg, mean, dose group 400, capsule, Day 1
[11] = 400 mg, mean, dose group 400, capsule, Day 18
[12] = 800 mg, 800 mg Dose Group, capsules once daily, Day 18, Geometric Mean
[13] = 800 mg, 800 mg Dose Group, capsules once daily, Day 18, Mean
[14] = 800 mg, 800 mg Dose Group, capsules once daily, Day 18, Median
[15] = 800 mg, 800 mg Dose Group, capsules once daily, Day 18, individual subjects
[16] = 800 mg, mean, dose group 800, capsule, Day 1
[17] = 800 mg, mean, dose group 800, capsule, Day 18
[18] = 2000 mg, 2000 mg Dose Group, capsule once daily, Day 18, Geometric Mean
[19] = 2000 mg, 2000 mg Dose Group, capsule once daily, Day 18, Mean
[20] = 2000 mg, 2000 mg Dose Group, capsule once daily, Day 18, Median

AUClast_D [1]: 5.305 µg·h/mL/mg | Cmax D [1]: 0.2493 µg/mL/mg | AUC_TAU_D [2]: 4.752 µg·h/mL/mg | AUClast_D [2]: 4.888 µg·h/mL/mg | Cmax D [2]: 0.2403 µg/mL/mg | AUC(0-t) [4]: 87.4 µg·h/mL | Cmax [4]: 7.19 µg/mL | Tmax [4]: 15 h | AUC(0-t) [5]: 1060 µg·h/mL | Cmax [5]: 49.9 µg/mL | Tmax [5]: 8.03 h | Cmax (200 mg, repeated dosing, study of Example 2): ~50 µg/mL | AUC [6]: 1500 µg·h/mL | AUC(0-t) [6]: 1520 µg·h/mL | Cmax [6]: 69.6 µg/mL | Tmax [6]: 4.27 h | AUC [7]: 1530 µg·h/mL | AUC(0-t) [7]: 1540 µg·h/mL | Cmax [7]: 70.8 µg/mL | Tmax [7]: 8.31 h | AUC [8]: 1400 µg·h/mL | AUC(0-t) [8]: 1480 µg·h/mL | Cmax [8]: 66.1 µg/mL | Tmax [8]: 5 h | AUC [9]: 1210 µg·h/mL | AUC(0-t) [9]: 1210 µg·h/mL | Cmax [9]: 56.2 µg/mL | AUC(0-t) [10]: 158 µg·h/mL | Cmax [10]: 10.6 µg/mL | Tmax [10]: 15.4 h | AUC(0-t) [11]: 1540 µg·h/mL | Cmax [11]: 70.8 µg/mL | Tmax [11]: 8.31 h | AUC [12]: 2530 µg·h/mL | AUC(0-t) [12]: 2590 µg·h/mL | concentration at 24 h [12]: 108 µg/mL | Cmax [12]: 118 µg/mL | AUC [13]: 2560 µg·h/mL | AUC(0-t) [13]: 2620 µg·h/mL | concentration at 24 h [13]: 110 µg/mL | Cmax [13]: 118 µg/mL | Tmax [13]: 11.5 h | AUC [14]: 2730 µg·h/mL | AUC(0-t) [14]: 2670 µg·h/mL | concentration at 24 h [14]: 115 µg/mL | Cmax [14]: 122 µg/mL | Tmax [14]: 9.99 h | AUC [15]: 1810 µg·h/mL | AUC(0-t) [15]: 1800 µg·h/mL | concentration at 24 h [15]: 73.7 µg/mL | Cmax [15]: 87.3 µg/mL | AUC(0-t) [16]: 340 µg·h/mL | Cmax [16]: 22.8 µg/mL | Tmax [16]: 15.6 h | AUC(0-t) [17]: 2620 µg·h/mL | Cmax [17]: 118 µg/mL | Tmax [17]: 11.5 h | AUC [18]: 987 µg·h/mL | AUC(0-t) [18]: 1030 µg·h/mL | Cmax [18]: 48.6 µg/mL | AUC [19]: 1020 µg·h/mL | AUC(0-t) [19]: 1060 µg·h/mL | concentration at 24 h [19]: 44 µg/mL | Cmax [19]: 49.9 µg/mL | Tmax [19]: 8.03 h | AUC [20]: 950 µg·h/mL | AUC(0-t) [20]: 978 µg·h/mL | Cmax [20]: 48.1 µg/mL | Tmax [20]: 6.5 h | peak blood plasma concentration (repeated dosing of 200 mg in the form of a capsule): ≥ 50 µg/mL | blood plasma concentration versus same amount of free base form (repeated dosing, 200 to 1000 mg/day): approximately five-fold higher
SMILES: O=C(Nc1nc(=O)n(Cc2ccc(Cl)cc2)s1)c1ccc(Cl)cc1 [Compound of formula II, sodium salt of 4-chloro-N-[2-[(4-chlorophenyl)methyl]-3-oxo-1,2,4-thiadiazol-5-yl]benzamide]
AUC_TAU_D (2000 mg Dose Group, capsule once daily, Day 18, individual subjects, listed as test material): 5.67 µg·h/mL/mg and 4.2 µg·h/mL/mg and 8.01 µg·h/mL/mg and 4.01 µg·h/mL/mg and 4.75 µg·h/mL/mg and 3.87 µg·h/mL/mg and 5.06 µg·h/mL/mg | AUClast_D [3]: 5.65 µg·h/mL/mg and 6.98 µg·h/mL/mg and 4.19 µg·h/mL/mg and 7.98 µg·h/mL/mg and 4 µg·h/mL/mg and 4.74 µg·h/mL/mg and 3.86 µg·h/mL/mg and 5.04 µg·h/mL/mg | Cmax D [3]: 0.261 µg/mL/mg and 0.31 µg/mL/mg and 0.21 µg/mL/mg and 0.36 µg/mL/mg and 0.201 µg/mL/mg and 0.231 µg/mL/mg and 0.173 µg/mL/mg and 0.25 µg/mL/mg
